From ChEMBL document CHEMBL3885881, “DrugMatrix”

Species: Rattus norvegicus
Test: DrugMatrix - Regimen: Daily Repeat
Format: toxicity, organism-based, Sprague-Dawley
Set-up: regimen Daily Repeat, gender Male, age 6-8 weeks
Settings: in vivo, po, route oral GAVAGE, vehicle .5 % CMC; for ABSOLUTE BASOPHIL / ABSOLUTE EOSINOPHIL / ABSOLUTE LYMPHOCYTE / ABSOLUTE MONOCYTE / ABSOLUTE SEGMENTED NEUTROPHIL / BASOPHIL / EOSINOPHIL / ERYTHROCYTE COUNT / HEMATOCRIT / HEMOGLOBIN / LEUKOCYTE COUNT / LYMPHOCYTE / MEAN CORPUSCULAR HEMOGLOBIN / MEAN CORPUSCULAR HEMOGLOBIN CONCENTRATION / MEAN CORPUSCULAR VOLUME / MONOCYTE / NEUTROPHIL / NUCLEATED RED BLOOD CELLS / PLATELET COUNT: tissue Blood; for ALANINE AMINOTRANSFERASE / ALBUMIN / ALKALINE PHOSPHATASE / ASPARTATE AMINOTRANSFERASE / BLOOD UREA NITROGEN / CARBON DIOXIDE / CHLORIDE / CHOLESTEROL / CREATINE PHOSPHOKINASE / CREATININE / GLUCOSE / LACTATE DEHYDROGENASE / LIPASE / PHOSPHORUS / POTASSIUM / SODIUM / TOTAL BILIRUBIN / TOTAL PROTEIN / URIC ACID: tissue Plasma
[1] = 10 mg/kg, 72 h, dose level Low, time 3 day
[2] = 10 mg/kg, 120 h, dose level Low, time 5 day
[3] = 2000 mg/kg, 72 h, dose level High, time 3 day
[4] = 2000 mg/kg, 120 h, dose level High, time 5 day

CC(=O)O[C@]1(C(C)=O)CC[C@H]2[C@@H]3C=C(Cl)C4=CC(=O)CC[C@]4(C)[C@H]3CC[C@@]21C [CHLORMADINONE ACETATE]
ABSOLUTE BASOPHIL [1]: 0 CELLS/uL | ABSOLUTE EOSINOPHIL [1]: 58.33 CELLS/uL | ABSOLUTE LYMPHOCYTE [1]: 11175 CELLS/uL | ABSOLUTE MONOCYTE [1]: 59.67 CELLS/uL | ABSOLUTE SEGMENTED NEUTROPHIL [1]: 507 CELLS/uL | BASOPHIL [1]: 0% | EOSINOPHIL [1]: 0.33% | ERYTHROCYTE COUNT [1]: 5.63 x10E6/uL | HEMATOCRIT [1]: 35.5% | HEMOGLOBIN [1]: 14.3 G/DL | LEUKOCYTE COUNT [1]: 11.8 x10E3/uL | LYMPHOCYTE [1]: 94.67% | MEAN CORPUSCULAR HEMOGLOBIN [1]: 25.37 pg | MEAN CORPUSCULAR HEMOGLOBIN CONCENTRATION [1]: 40.27 G/DL | MEAN CORPUSCULAR VOLUME [1]: 63 fL | MONOCYTE [1]: 0.67% | NEUTROPHIL [1]: 4.33% | NUCLEATED RED BLOOD CELLS [1]: 0 /100WBC | PLATELET COUNT [1]: 925.33 x10E3/uL | ALANINE AMINOTRANSFERASE [1]: 52 u/L | ALBUMIN [1]: 4.5 G/DL | ALKALINE PHOSPHATASE [1]: 475 u/L | ASPARTATE AMINOTRANSFERASE [1]: 70.67 u/L | BLOOD UREA NITROGEN [1]: 17.67 mg/dL | CARBON DIOXIDE [1]: 33 mmol/L | CHLORIDE [1]: 101 MEQ/L | CHOLESTEROL [1]: 81.67 mg/dL | CREATINE PHOSPHOKINASE [1]: 138.33 u/L | CREATININE [1]: 0.17 mg/dL | GLUCOSE [1]: 135.67 mg/dL | LACTATE DEHYDROGENASE [1]: 134.67 u/L | LIPASE [1]: 12 u/L | PHOSPHORUS [1]: 11.17 mg/dL | POTASSIUM [1]: 6.06 MEQ/L | SODIUM [1]: 149.35 MEQ/L | TOTAL BILIRUBIN [1]: 0.3 mg/dL | TOTAL PROTEIN [1]: 6.37 G/DL | URIC ACID [1]: 0.67 mg/dL | ABSOLUTE BASOPHIL [2]: 0 CELLS/uL | ABSOLUTE EOSINOPHIL [2]: 0 CELLS/uL | ABSOLUTE LYMPHOCYTE [2]: 14416.33 CELLS/uL | ABSOLUTE MONOCYTE [2]: 46.33 CELLS/uL | ABSOLUTE SEGMENTED NEUTROPHIL [2]: 1304 CELLS/uL | BASOPHIL [2]: 0% | EOSINOPHIL [2]: 0% | ERYTHROCYTE COUNT [2]: 6.23 x10E6/uL | HEMATOCRIT [2]: 37.17% | HEMOGLOBIN [2]: 14.57 G/DL | LEUKOCYTE COUNT [2]: 15.77 x10E3/uL | LYMPHOCYTE [2]: 91.67% | MEAN CORPUSCULAR HEMOGLOBIN [2]: 23.47 pg | MEAN CORPUSCULAR HEMOGLOBIN CONCENTRATION [2]: 39.23 G/DL | MEAN CORPUSCULAR VOLUME [2]: 59.77 fL | MONOCYTE [2]: 0.33% | NEUTROPHIL [2]: 8% | NUCLEATED RED BLOOD CELLS [2]: 0 /100WBC | PLATELET COUNT [2]: 1116.33 x10E3/uL | ALANINE AMINOTRANSFERASE [2]: 54.33 u/L | ALBUMIN [2]: 4.47 G/DL | ALKALINE PHOSPHATASE [2]: 380.67 u/L | ASPARTATE AMINOTRANSFERASE [2]: 92.67 u/L | BLOOD UREA NITROGEN [2]: 14 mg/dL | CARBON DIOXIDE [2]: 25.67 mmol/L | CHLORIDE [2]: 102.33 MEQ/L | CHOLESTEROL [2]: 79.67 mg/dL | CREATINE PHOSPHOKINASE [2]: 290.67 u/L | CREATININE [2]: 0.13 mg/dL | GLUCOSE [2]: 156.67 mg/dL | LACTATE DEHYDROGENASE [2]: 269 u/L | LIPASE [2]: 9.67 u/L | PHOSPHORUS [2]: 12.67 mg/dL | POTASSIUM [2]: 7.15 MEQ/L | SODIUM [2]: 146.13 MEQ/L | TOTAL BILIRUBIN [2]: 0.2 mg/dL | TOTAL PROTEIN [2]: 6.27 G/DL | URIC ACID [2]: 1.77 mg/dL | ABSOLUTE BASOPHIL [3]: 0 CELLS/uL | ABSOLUTE EOSINOPHIL [3]: 87.33 CELLS/uL | ABSOLUTE LYMPHOCYTE [3]: 10368.67 CELLS/uL | ABSOLUTE MONOCYTE [3]: 145 CELLS/uL | ABSOLUTE SEGMENTED NEUTROPHIL [3]: 665.67 CELLS/uL | BASOPHIL [3]: 0% | EOSINOPHIL [3]: 0.67% | ERYTHROCYTE COUNT [3]: 5.63 x10E6/uL | HEMATOCRIT [3]: 36.4% | HEMOGLOBIN [3]: 14.6 G/DL | LEUKOCYTE COUNT [3]: 11.27 x10E3/uL | LYMPHOCYTE [3]: 90.67% | MEAN CORPUSCULAR HEMOGLOBIN [3]: 25.93 pg | MEAN CORPUSCULAR HEMOGLOBIN CONCENTRATION [3]: 40.1 G/DL | MEAN CORPUSCULAR VOLUME [3]: 64.67 fL | MONOCYTE [3]: 1.33% | NEUTROPHIL [3]: 7.33% | NUCLEATED RED BLOOD CELLS [3]: 0 /100WBC | PLATELET COUNT [3]: 1192 x10E3/uL | ALANINE AMINOTRANSFERASE [3]: 57 u/L | ALBUMIN [3]: 4.57 G/DL | ALKALINE PHOSPHATASE [3]: 388.67 u/L | ASPARTATE AMINOTRANSFERASE [3]: 82 u/L | BLOOD UREA NITROGEN [3]: 16.33 mg/dL | CARBON DIOXIDE [3]: 29 mmol/L | CHLORIDE [3]: 99 MEQ/L | CHOLESTEROL [3]: 79.67 mg/dL | CREATINE PHOSPHOKINASE [3]: 341.33 u/L | CREATININE [3]: 0.18 mg/dL | GLUCOSE [3]: 149.33 mg/dL | LACTATE DEHYDROGENASE [3]: 132.67 u/L | LIPASE [3]: 10 u/L | PHOSPHORUS [3]: 12.23 mg/dL | POTASSIUM [3]: 6.81 MEQ/L | SODIUM [3]: 144.97 MEQ/L | TOTAL BILIRUBIN [3]: 0.17 mg/dL | TOTAL PROTEIN [3]: 6.6 G/DL | URIC ACID [3]: 1.8 mg/dL | ABSOLUTE BASOPHIL [4]: 0 CELLS/uL | ABSOLUTE EOSINOPHIL [4]: 0 CELLS/uL | ABSOLUTE LYMPHOCYTE [4]: 10781.67 CELLS/uL | ABSOLUTE MONOCYTE [4]: 45 CELLS/uL | ABSOLUTE SEGMENTED NEUTROPHIL [4]: 840 CELLS/uL | BASOPHIL [4]: 0% | EOSINOPHIL [4]: 0% | ERYTHROCYTE COUNT [4]: 6.06 x10E6/uL | HEMATOCRIT [4]: 36.83% | HEMOGLOBIN [4]: 14.67 G/DL | LEUKOCYTE COUNT [4]: 11.67 x10E3/uL | LYMPHOCYTE [4]: 92% | MEAN CORPUSCULAR HEMOGLOBIN [4]: 24.23 pg | MEAN CORPUSCULAR HEMOGLOBIN CONCENTRATION [4]: 39.8 G/DL | MEAN CORPUSCULAR VOLUME [4]: 60.87 fL | MONOCYTE [4]: 0.33% | NEUTROPHIL [4]: 7.67% | NUCLEATED RED BLOOD CELLS [4]: 0.33 /100WBC | PLATELET COUNT [4]: 996.33 x10E3/uL | ALANINE AMINOTRANSFERASE [4]: 60.33 u/L | ALBUMIN [4]: 4.3 G/DL | ALKALINE PHOSPHATASE [4]: 310.33 u/L | ASPARTATE AMINOTRANSFERASE [4]: 77.67 u/L | BLOOD UREA NITROGEN [4]: 17.67 mg/dL | CARBON DIOXIDE [4]: 24.67 mmol/L | CHLORIDE [4]: 102.33 MEQ/L | CHOLESTEROL [4]: 67.33 mg/dL | CREATINE PHOSPHOKINASE [4]: 145.33 u/L | CREATININE [4]: 0.2 mg/dL | GLUCOSE [4]: 139 mg/dL | LACTATE DEHYDROGENASE [4]: 117.33 u/L | LIPASE [4]: 9.67 u/L | PHOSPHORUS [4]: 12.2 mg/dL | POTASSIUM [4]: 7.04 MEQ/L | SODIUM [4]: 143.63 MEQ/L | TOTAL BILIRUBIN [4]: 0.2 mg/dL | TOTAL PROTEIN [4]: 6.37 G/DL | URIC ACID [4]: 1.4 mg/dL
